Measurements from patent publication US20030229132A1, “Small molecule modulators of apoptosis” (priority 2002, published 2003).
Blank lines part the entries; values can stand above or below the compound they belong to.

Legend:
[1] = test system: procaspases-9 and -3; assay: Immunoblot for cleavage of procaspases-9 and -3 in S-100 cytoplasmic extracts; type: biochemical; settings: 20 μM compound, cyto c 1.25 μM
Procedure: FIG. 2 depicts activity of compounds 1-5 in cell lysates. (A) Compound activation is cyto c dependent. Cyto c was titrated into S-100 cytoplasmic extracts with vehicle alone or 20 μM compound and procaspase-3 processing was assayed by capture ELISA. (B) Compound activation is dose-dependent. Compounds or vehicle were titrated into S-100 cytoplasmic extracts at a cyto c concentration of 1.25 μM and procaspases-3 processing was assayed by capture ELISA. (C) Immunoblot assay of compound-induced caspase activation. Samples at the 20 μM compound concentration in (B) were separated on SDS-polyacrylamide gel and transferred to polyvinyl membrane. The same membrane was cut and probed with antibodies to caspase-9, the large subunit of active caspase-3, and P13 kinase as a loading control. (D) Compounds act upstream of caspase-9 activation. Cyto c was titrated into caspase-3 immunodepleted extracts with or without 20 μM compounds and assayed by immunoblot for procaspase-9 processing.
To directly visualize the processing of procaspases induced by the compounds, samples at the 20 μM compound concentration in FIG. 2B were assayed by immunoblot for the cleavage of procaspases-9 and -3.

[2] = test system: cell lines from the NCI cancer panel; assay: NCI cancer panel, cell growth by sulforhodamine B staining; type: cell-based
Procedure: Cells were exposed to serial dilutions of compound 2 continuously for 6 days, and cell growth relative to controls was determined by staining with sulforhodamine B. Some cell lines were excluded for clarity. (A) Dose-response plots for leukemia, melanoma, renal cancer and CNS cancer. (B) Dose-response plots for lung, breast and colon cancers.
Compounds 2-5 additionally were submitted to the National Cancer Institute for screening in the cancer panel. […] Compound 2 exerted a cytostatic effect on the majority of cell lines tested, inhibiting cell growth by 50-100% at 10 μM in 40 out of 48 cell lines tested. In addition, compound 2 exerted a cytotoxic effect, reducing the cell numbers by 10-50% in four cell lines and by 50-100% in eight cell lines from the initial levels when tested at 10 μM. […] Representative dose-response plots for lung, breast and colon cancer cell lines are also shown (FIG. 4B). Results for ovarian and prostate cancer were similar.

[3] = test system: procaspase-3 processing; assay: Procaspase-3 processing in SK-OV-3 cell lysate with purified Apaf-1; type: biochemical; settings: 20 μM compound, 150 nM purified Apaf-1, 300 μM dATP
Procedure: (§1) (A) Jurkat cells were transfected with 20 nM Apaf-1 siRNA for 48 hr and half the cells were lysed and probed with antibodies to Apaf-1, caspase-9, and caspase-3. The other half of the cells was incubated with varying concentrations of (B), compound 2 or (C), Fas ligand for 24 hr and assayed for viability by MTT test. (D) SK-OV-3 cells were transiently transfected with Apaf-1 or vector control for 24 hr and then incubated with vary concentrations of compound 2 and assayed for viability. (E) Cyto c was titrated into SK-OV-3 cell lysate in the presence of 300 μM dATP, with or without 150 nM purified Apaf-1 and 20 μM compound 2 as indicated.
(§2) If silencing Apaf-1 in Jurkat cells make them resistant to compound 2 induced apoptosis, then it would be expected that ectopic expression of wildtype Apaf-1 in an Apaf-1 deficient cell line should render cells sensitive to compound 2. As mentioned above, the ovarian cancer cell line SK-OV-3 is deficient in Apaf-1 activity and is resistant to compound 2. Apaf-i was cloned into pcDNA-3 and transiently transfected into SK-OV-3 cells using Fugene (Roche) according to the manufacturer's instructions. Transient transfection of Apaf-1 into SK-OV-3 cells rendered them sensitive to compound 2 cytotoxicity as compared to the vector control (FIG. 5D). […]

[4] = test system: SK-OV-3; assay: Cell viability, SK-OV-3; type: cell-based
Source text: (§3) Normal cell lines include peripheral blood lymphocytes (PBL) isolated from donated human blood, non-transformed mammary fibroblasts (MCF-10A), human mammary epithelial cells (HMEC), human umbilical vein endothelial cells (HUVEC), and human prostate epithelial cells (PREC). Transformed cell lines include cell lines from leukemia, breast, lung, ovarian, and epidermal cancers (Table 1).

[5] = test system: CCRF-CEM; assay: Cell viability, CCRF-CEM; type: cell-based, human; settings: leukemia
Source text: (§4) Samples were then probed by immunoblot for (A) caspase-3 activation or (B) cleavage of PARP. (C) DNA fragmentation analysis. […] The DNA was isolated by phenol/chloroform extraction, separated on a 2% agarose gel and visualized by ethidium bromide staining. Cell viability assay.
as §3

[6] = test system: human prostate epithelial cells (PREC); assay: Cell viability, PREC; type: cell-based
Source text: as §3

[7] = test system: BT-549; assay: Cell viability, BT-549; type: cell-based, human; settings: BT-549, breast
Source text: as §3

[8] = test system: Apaf-1 transfected SK-OV-3 cells; assay: Viability of SK-OV-3 cells transiently transfected with Apaf-1; type: cell-based; settings: several independent experiments
Procedure: as §1, §2

[9] = test system: Jurkat cells transfected with Apaf-1 siRNA; assay: Viability of Jurkat cells transfected with Apaf-1 siRNA (MTT test); type: cell-based, human; settings: 20 nM Apaf-1 siRNA 48 hr, then 24 hr incubation
Procedure: as §1
In order to verify that compound 2 targets the apoptosome as a function of its cytotoxic activity, small interfering RNA (siRNA) was used to silence the expression of Apaf-1 in Jurkat cells. Sense and anti-sense oligonucleotides corresponding to nucleotides 978-998 of Apaf-1 (([…]) as reported by Lassus et al. Science 297, 1352-4. (2002)), were purchased from Dharmacon. Transfection of siRNA into Jurkat cells was accomplished using GeneSilencer (Gene Therapy Systems) according to manufacturer's instructions. There was a significant decrease in the level of expression of Apaf-1 48 hr after transfection of an Apaf-1 specific siRNA, without affecting the expression of caspases in the pathway (FIG. 5A).

[10] = test system: peripheral blood lymphocytes (PBL); assay: Cell viability, PBL; type: cell-based, human; settings: normal cell
Source text: as §4, §3

[11] = test system: human mammary epithelial cells (HMEC); assay: Cell viability, HMEC; type: cell-based
[12] = test system: NCI-H23; assay: Cell viability, NCI-H23; type: cell-based, human; settings: NCI-H23, lung
[13] = test system: MDA-MB-468; assay: Cell viability, MDA-MB-468; type: cell-based; settings: MDA-MB-468, breast
Source text: as §3

Compound: O=C(NCc1ccc(Cl)c(Cl)c1)OC1CCc2ccccc21 (stereo not drawn) [Compound 4]
processing of procaspases-9 and -3 [1]: limited processing

IC50 ([4]; SK-OV-3, ovarian, Apaf-1 deficient): > 50 µM
IC50 [5]: 9 µM
IC50 [7]: 20 µM
IC50 [12]: 35 µM
IC50 [13]: 44 µM
Compound: O=C1C(=O)N(Cc2ccc(Cl)c(Cl)c2)c2ccccc21 [Compound 2]
inhibition of cell growth (cytostatic effect) ([2]; 10 μM, in 40 out of 48 cell lines tested, 6 days): 50-100%
reduction of cell numbers from the initial levels (cytotoxic effect) ([2]; 10 μM, in eight cell lines): 50-100%
reduction of cell numbers from the initial levels (cytotoxic effect) ([2]; 10 μM, in four cell lines): 10-50%
cytotoxicity ([2]; 100 μM, virtually all cell lines): 100%
sensitivity relative to the mean response of the panel ([2]; CCRF-CEM, MOLT-4, LOX IMVI, SN 12C, SF-295): 5-10 fold
overall activity in the cancer panel ([2]; among compounds 2-5): most active overall
effect on cyto c activation curve of procaspase-3 processing [3]: shifted the activation curve to the left
effect on cells ([4]; SK-OV-3, deficient in Apaf-1 activity): no effect
effect on cells ([6]; PREC cells, up to 50 μM): no effect except at the highest concentration
IC50 ([6]; PREC, normal cell): > 50 µM
viability of cells exposed to compound (plateau) [8]: 40-50%
cell killing after silencing of Apaf-1 [9]: resistance
IC50 [10]: 50 µM
effect on cells ([11]; HMEC cells, up to 50 μM): no effect except at the highest concentration
IC50 ([11]; HMEC, normal cell): > 50 µM
